{
  "source": "patent US12616203B2",
  "about": "“Use of 3-isoxazolidinones compounds as selective herbicides” (FMC Corporation, priority 2014, dated 2026)",
  "key": {"weeds": {"test_system": "weeds", "assay": "Ex22 PRE greenhouse", "format": "in vivo", "settings": "28 DAT, weed and rate in the words", "description": "2,4 DC (36.7% CS) was applied PRE at 0, 125, 170, 210, or 250 g ai/ha alone or as a tank-mix with S-metolachlor (Dual II Magnum®, 82.4%) at 0, 267, 534, 801, or 1070 g ai/ha. Pyroxasulfone plus fluthiacet-methyl (Anthem™, 23.3%) applied at 169.9 g ai/ha, and the tank-mix of mesotrione (Callisto®, 40%) at 123 g plus S-metolachlor (Dual II Magnum®, 82.4%) at 1252 g were included as a standards for comparison.\nThereafter flats were watered and fertilized routinely. Each treatment was replicated three times."}, "Italian ryegrass (IR)": {"test_system": "Italian ryegrass (IR)", "assay": "Ex2 PRE greenhouse, % control", "format": "in vivo, Lolium perenne. multiflorum", "settings": "28 DAT, g ai/ha by row: r12-40 2,4-DC 31.25/62.5/125/250/375 (3 rows each) + metazachlor 250/500/750 (cycling)", "method": "Test compositions containing 2,4 DC Example 1B and metazachlor (Butisan® S, 43.1% active ingredient, BASF) and mixtures of 2-(2,4-dichlorophenyl)methyl-4,4-dimethyl-3-isoxazolidinone and metazachlor, were diluted with water to provide the appropriate test rate concentrations.\nThe test crops were wheat and canola (Brassica napus), the test weeds were Italian ryegrass (IR) (Lolium perenne. multiflorum), annual bluegrass (AB) (Poa annua), common lambsquarters (CL) (Chenopodium album), littleseed canarygrass (LC) (Phalaris minor), common chickweed (CC) (Stellaria media), and corn poppy (CP) (Papaver rhoeas).\nFor pre-emergence testing, four disposable fiber flats (6″ by 10″) for each rate of application of each herbicide solution were filled with top soil, to which seeds of each species were planted in furrows made by a template pressed on the top of the soil. The furrows were covered with soil after planting the seed and were watered well before application of the test compounds.\nFiber flats designated for treatment were placed in a spray chamber having a static platform and a movable sprayer and height of the spray nozzle was 10.5 inches above the soil level. Once the sprayer was calibrated using water for spray volume of 30 gallons per acre, flats were sprayed with sprayer at a speed to receive a coverage equivalent of 30 gallons per acre. The application rates are those shown in Table 1 below for the individual herbicidal solutions and the herbicide compositions of the present invention. The pre-emergence flats were immediately placed in the greenhouse and watered lightly after treatment. Thereafter they were regularly watered and fertilized for the duration of the test.\nThe control of weeds was evaluated in each experimental test at 21 days after treatment (DAT) for corn poppy and wheat and 28 DAT for all other species. The results, shown as an average of the replications were compared with results observed in untreated control flats in the same tests.\nPercent control was determined by a method similar to the 0 to 100 rating system disclosed in “Research Methods in Weed Science,” 2nd ed., B. Truelove, Ed.; Southern Weed Science Society; Auburn University, Auburn, Ala., 1977."}, "Common ragweed": {"test_system": "Common ragweed", "assay": "Ex16 PRE 2,4-DC + pyroxasulfone, % control 28 DAT, Colby", "format": "in vivo, Ambrosia artemisiifolia", "description": "To determine PRE efficacy, five levels of 2,4 DC (36.7% CS) 0, 125, 170, 210, or 250 g ai/ha and five levels of pyroxasulfone (KIH485-85WG) 0, 50, 65, 80, or 95 g ai/ha were applied either alone or as tank-mix. Additional treatments consisted of premix of pyroxasulfone plus fluthiacet-methyl (Anthem™ 23.3%) at 169.9 g ai/ha, S-metolachlor (Dual II Magnum, 82.4%) at 1388 g, and tank-mix of mesotrione (Callisto, 40%) at 123 g plus S-metolachlor at 1252 g. […] Treatments were applied before the emergence of black nightshade, giant foxtail, green foxtail, yellow foxtail, large crabgrass, kochia, redroot pigweed, common ragweed, and barnyardgrass.\nFlats were watered and fertilized routinely after treatment application. Each treatment was replicated three times."}, "Pennsylvania smartweed": {"test_system": "Pennsylvania smartweed", "assay": "Ex15 PRE 2,4-DC + S-metolachlor, % control 28 DAT, Colby", "format": "in vivo, Polygonum pensylvanicum", "description": "The weeds tested in this study were redroot pigweed (Amaranthus retroflexus, AMARE), Jimsonweed (Datura stramonium, DATST), black nightshade (Solanum nigrum, SOLNI), large crabgrass (Digitaria sanguinalis, DIGSA), Pennsylvania smartweed (Polygonum pensylvanicum, POLPY), horseweed (Conyza canadensis, ERICA), wild buckwheat (Polygonum convolvulus, POLCO). The crop tested was Corn (var. Viking).\nTo determine PRE efficacy and corn injury, five rates of each 2,4 DC (36.7% CS) and S-metolachlor (Dual II Magnum®, 82.4%) were applied either alone or as tank-mix. 2,4 DC was applied at 0, 125, 170, 210, or 250 g ai/ha and S-metolachlor was applied at 0, 267, 534, 801, or 1070 g ai/ha. Additional treatments included application of premix of pyroxasulfone plus fluthiacet-methyl (Anthem™ 23.3%) at 169.9 g ai/ha and tank-mix of mesotrione (Callisto®, 40%) at 123 g plus S-metolachlor at 1252 g. Treatments were applied just after the planting of large crabgrass, Jimsonweed, black nightshade, redroot pigweed, Pennsylvania smartweed, horseweed, wild buckwheat, and corn.\nFlats were watered and fertilized routinely after treatment application. Each treatment was replicated three times. […] Corn injury was rated for bleaching and stunting."}, "weeds; canola, and wheat": {"test_system": "weeds; canola, and wheat", "assay": "Ex39 PRE greenhouse", "format": "in vivo", "settings": "weed and rate in the words", "description": "Thereafter flats were watered and fertilized routinely."}, "weeds; Wheat and canola": {"test_system": "weeds; Wheat and canola", "assay": "Ex27 PRE greenhouse", "format": "in vivo", "settings": "weed and rate in the words", "description": "The weeds tested in this study were Italian ryegrass (Lolium perenne. multiflorum, LOLMU), wild mustard (Sinapis arvensis, SINAR), annual bluegrass (Poa annua POAAN), wild oat (Avena fatua, AVEFA), blackgrass (Alopecurus myosuroides, ALOMY), common lambsquarters (Chenopodium album […] (Phalaris minor, PHAMI), common chickweed (Stellaria media, STEME), corn poppy (Papaver rhoeas PAPRH). The crops tested were Wheat and canola. […] Treatments were applied before the emergence of Italian ryegrass, wild oat, blackgrass, littleseed canarygrass, common chickweed, common lambsquarters, corn poppy, wild mustard, annual bluegrass, canola, and wheat. […] Flats were watered and fertilized routinely after treatment application. […] Wheat and corn poppy were rated at 14 and 21 DAT only."}},
  "data": [
    {"smiles": "CC1(C)CON(Cc2ccc(Cl)cc2Cl)C1=O", "note": "[2,4-DC, 2-(2,4-dichlorophenyl)methyl-4,4-dimethyl-3-isoxazolidinone]", "values": [
      {"measurement": "weed control in words", "setting": "weeds", "result": "applied alone controlled (≥85% injury) Johnsongrass at 210 g ai/ha, common lambsquarters at 250 g and goosegrass at all rates"},
      {"measurement": "% Control IR", "setting": "Italian ryegrass (IR); r42-46 2,4-DC 31.25/62.5/125/250/375, r47-49 metazachlor 250/500/750, 31.25 g ai/ha", "result": 57, "unit": "%"},
      {"measurement": "% Control IR", "setting": "Italian ryegrass (IR); r42-46 2,4-DC 31.25/62.5/125/250/375, r47-49 metazachlor 250/500/750, 62.5 g ai/ha", "result": 68, "unit": "%"},
      {"measurement": "% Control IR", "setting": "Italian ryegrass (IR); r42-46 2,4-DC 31.25/62.5/125/250/375, r47-49 metazachlor 250/500/750, 125 g ai/ha", "result": 85, "unit": "%"},
      {"measurement": "% Control IR", "setting": "Italian ryegrass (IR); r42-46 2,4-DC 31.25/62.5/125/250/375, r47-49 metazachlor 250/500/750, 250 g ai/ha", "result": 98, "unit": "%"},
      {"measurement": "% Control IR", "setting": "Italian ryegrass (IR); r42-46 2,4-DC 31.25/62.5/125/250/375, r47-49 metazachlor 250/500/750, 375 g ai/ha", "result": 99, "unit": "%"},
      {"measurement": "X", "setting": "Common ragweed; 2,4-DC alone 125 g ai/ha", "result": 33, "unit": "%"},
      {"measurement": "X", "setting": "Common ragweed; 2,4-DC alone 170 g ai/ha", "result": 40, "unit": "%"},
      {"measurement": "X", "setting": "Common ragweed; 2,4-DC alone 210 g ai/ha", "result": 40, "unit": "%"},
      {"measurement": "X", "setting": "Common ragweed; 2,4-DC alone 250 g ai/ha", "result": 45, "unit": "%"},
      {"measurement": "X", "setting": "Pennsylvania smartweed; 2,4-DC alone 125 g ai/ha", "result": 38, "unit": "%"},
      {"measurement": "X", "setting": "Pennsylvania smartweed; 2,4-DC alone 170 g ai/ha", "result": 67, "unit": "%"},
      {"measurement": "X", "setting": "Pennsylvania smartweed; 2,4-DC alone 210 g ai/ha", "result": 80, "unit": "%"},
      {"measurement": "X", "setting": "Pennsylvania smartweed; 2,4-DC alone 250 g ai/ha", "result": 78, "unit": "%"},
      {"measurement": "weed control in words", "setting": "weeds; canola, and wheat", "result": "alone at ≥50 g ai/ha controlled (≥85%) Canada thistle, dandelion, or common chickweed"},
      {"measurement": "weed control in words", "setting": "weeds; Wheat and canola", "result": "provided good control of blackgrass at 375 g; controlled Italian ryegrass at ≥125 g and common chickweed at all rates"}
    ]}
  ]
}
